In ChEMBL document CHEMBL4507263, “Data for DCP probe BAY-474” (2021):

Legend:
[1] = target: Casein kinase I isoform gamma-2 (Homo sapiens) (UniProt P78368); details: Compound concentration 1000.0 nM
[2] = target: Casein kinase I isoform gamma-3 (Homo sapiens) (UniProt Q9Y6M4); details: Compound concentration 1000.0 nM
[3] = tested on: Tyrosine-protein kinase ABL1 (Homo sapiens), P00519 [F317I]; details: Compound concentration 1000.0 nM
[4] = target: Serine/threonine-protein kinase STK11 (Homo sapiens) (UniProt Q15831); details: Compound concentration 1000.0 nM
[5] = target: LIM domain kinase 2 (Homo sapiens) (UniProt P53671); details: Compound concentration 1000.0 nM
[6] = target: RAC-beta serine/threonine-protein kinase (Homo sapiens) (UniProt P31751); details: Compound concentration 1000.0 nM
[7] = target: Tyrosine-protein kinase FRK (Homo sapiens) (UniProt P42685); details: Compound concentration 1000.0 nM
[8] = target: Serine/threonine-protein kinase 25 (Homo sapiens) (UniProt O00506); details: Compound concentration 1000.0 nM
[9] = target: Membrane-associated tyrosine- and threonine-specific cdc2-inhibitory kinase (Homo sapiens) (UniProt Q99640); details: Compound concentration 1000.0 nM
[10] = target: Homeodomain-interacting protein kinase 4 (Homo sapiens) (UniProt Q8NE63); details: Compound concentration 1000.0 nM
[11] = tested on: Tyrosine-protein kinase ABL1 (Homo sapiens), P00519 [E255K]; details: Compound concentration 1000.0 nM
Chain of Tyrosine-protein kinase ABL1 (Homo sapiens), P00519 [E255K] (P00519 whole entry E255K): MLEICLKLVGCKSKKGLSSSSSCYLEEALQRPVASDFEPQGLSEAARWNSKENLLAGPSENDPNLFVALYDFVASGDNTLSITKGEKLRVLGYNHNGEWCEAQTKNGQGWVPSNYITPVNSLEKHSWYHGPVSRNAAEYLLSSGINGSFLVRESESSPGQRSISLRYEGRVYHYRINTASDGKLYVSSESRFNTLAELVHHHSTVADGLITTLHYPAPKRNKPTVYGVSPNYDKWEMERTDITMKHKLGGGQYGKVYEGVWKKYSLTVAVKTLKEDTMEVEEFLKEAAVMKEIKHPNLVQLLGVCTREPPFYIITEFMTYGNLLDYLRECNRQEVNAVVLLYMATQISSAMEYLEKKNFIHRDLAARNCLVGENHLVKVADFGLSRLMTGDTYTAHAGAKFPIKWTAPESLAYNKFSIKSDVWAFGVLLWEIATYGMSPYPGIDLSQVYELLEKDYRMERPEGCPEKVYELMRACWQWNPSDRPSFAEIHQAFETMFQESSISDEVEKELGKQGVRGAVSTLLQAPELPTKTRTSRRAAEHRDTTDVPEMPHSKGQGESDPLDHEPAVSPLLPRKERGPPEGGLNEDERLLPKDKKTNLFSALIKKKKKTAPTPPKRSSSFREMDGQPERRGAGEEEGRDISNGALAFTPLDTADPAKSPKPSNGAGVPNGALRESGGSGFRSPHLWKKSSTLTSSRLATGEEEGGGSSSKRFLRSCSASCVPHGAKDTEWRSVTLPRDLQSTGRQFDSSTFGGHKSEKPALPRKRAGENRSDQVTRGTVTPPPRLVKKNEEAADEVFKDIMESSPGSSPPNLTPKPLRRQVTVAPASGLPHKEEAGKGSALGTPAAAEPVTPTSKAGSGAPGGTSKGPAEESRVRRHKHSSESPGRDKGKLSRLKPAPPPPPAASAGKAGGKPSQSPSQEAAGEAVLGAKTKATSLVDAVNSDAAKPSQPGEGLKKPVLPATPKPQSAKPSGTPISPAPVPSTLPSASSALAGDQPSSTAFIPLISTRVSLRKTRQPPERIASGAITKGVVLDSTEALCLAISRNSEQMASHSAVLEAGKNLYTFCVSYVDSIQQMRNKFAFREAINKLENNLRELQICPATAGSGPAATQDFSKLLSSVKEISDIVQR

[12] = target: Tyrosine-protein kinase receptor Tie-1 (Homo sapiens) (UniProt P35590); details: Compound concentration 1000.0 nM
[13] = tested on: Mast/stem cell growth factor receptor Kit (Homo sapiens), P10721 [L576P]; details: Compound concentration 1000.0 nM
Chain of Mast/stem cell growth factor receptor Kit (Homo sapiens), P10721 [L576P] (P10721 whole entry L576P): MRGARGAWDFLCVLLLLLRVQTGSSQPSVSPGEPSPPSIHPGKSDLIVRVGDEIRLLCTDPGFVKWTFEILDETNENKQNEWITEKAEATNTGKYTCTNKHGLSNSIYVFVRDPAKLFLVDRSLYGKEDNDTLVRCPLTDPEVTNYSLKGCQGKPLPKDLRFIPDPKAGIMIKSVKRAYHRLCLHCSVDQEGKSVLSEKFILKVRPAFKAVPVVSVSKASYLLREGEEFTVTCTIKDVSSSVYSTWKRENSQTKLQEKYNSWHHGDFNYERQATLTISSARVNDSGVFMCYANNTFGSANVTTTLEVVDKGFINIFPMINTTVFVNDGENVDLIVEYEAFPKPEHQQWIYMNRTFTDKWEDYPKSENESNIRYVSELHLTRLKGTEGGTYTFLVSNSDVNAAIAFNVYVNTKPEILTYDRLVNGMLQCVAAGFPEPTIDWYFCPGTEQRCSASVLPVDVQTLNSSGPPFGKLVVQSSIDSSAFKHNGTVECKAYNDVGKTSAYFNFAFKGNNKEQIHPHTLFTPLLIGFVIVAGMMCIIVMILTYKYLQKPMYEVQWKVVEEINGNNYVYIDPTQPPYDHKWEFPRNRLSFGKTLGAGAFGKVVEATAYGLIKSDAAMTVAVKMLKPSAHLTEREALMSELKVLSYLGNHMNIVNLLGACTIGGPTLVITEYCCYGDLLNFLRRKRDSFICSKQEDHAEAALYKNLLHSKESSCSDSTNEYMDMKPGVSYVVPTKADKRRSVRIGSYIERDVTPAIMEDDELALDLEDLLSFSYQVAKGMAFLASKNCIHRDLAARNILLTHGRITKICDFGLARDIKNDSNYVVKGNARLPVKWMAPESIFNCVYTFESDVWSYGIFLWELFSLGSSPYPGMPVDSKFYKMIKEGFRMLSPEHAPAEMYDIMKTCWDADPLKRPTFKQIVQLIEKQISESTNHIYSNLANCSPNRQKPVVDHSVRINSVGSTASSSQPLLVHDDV

[14] = target: Serine/threonine-protein kinase Nek11 (Homo sapiens) (UniProt Q8NG66); details: Compound concentration 1000.0 nM
[15] = target: Serine/threonine-protein kinase pim-2 (Homo sapiens) (UniProt Q9P1W9); details: Compound concentration 1000.0 nM
[16] = target: Serine/threonine-protein kinase SBK1 (Homo sapiens) (UniProt Q52WX2); details: Compound concentration 1000.0 nM
Chain of Serine/threonine-protein kinase SBK1 (Homo sapiens) (Q52WX2 whole entry): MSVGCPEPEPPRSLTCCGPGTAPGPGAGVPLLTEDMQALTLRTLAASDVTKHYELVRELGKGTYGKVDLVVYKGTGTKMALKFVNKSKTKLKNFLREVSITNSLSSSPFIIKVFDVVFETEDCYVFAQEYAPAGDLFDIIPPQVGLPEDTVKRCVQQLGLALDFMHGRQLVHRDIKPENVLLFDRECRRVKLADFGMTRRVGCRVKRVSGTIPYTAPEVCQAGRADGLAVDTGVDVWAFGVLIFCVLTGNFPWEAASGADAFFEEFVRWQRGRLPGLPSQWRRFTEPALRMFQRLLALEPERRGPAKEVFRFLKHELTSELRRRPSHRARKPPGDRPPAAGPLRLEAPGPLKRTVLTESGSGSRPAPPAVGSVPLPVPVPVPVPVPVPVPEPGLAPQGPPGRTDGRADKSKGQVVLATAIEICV

[17] = target: Death-associated protein kinase 3 (Homo sapiens) (UniProt O43293); details: Compound concentration 1000.0 nM
[18] = target: Fibroblast growth factor receptor 4 (Homo sapiens) (UniProt P22455); details: Compound concentration 1000.0 nM
[19] = target: Cyclin-dependent kinase 5 (Homo sapiens) (UniProt Q00535); details: Compound concentration 1000.0 nM
Chain of Cyclin-dependent kinase 5 (Homo sapiens) (Q00535 whole entry, looked up): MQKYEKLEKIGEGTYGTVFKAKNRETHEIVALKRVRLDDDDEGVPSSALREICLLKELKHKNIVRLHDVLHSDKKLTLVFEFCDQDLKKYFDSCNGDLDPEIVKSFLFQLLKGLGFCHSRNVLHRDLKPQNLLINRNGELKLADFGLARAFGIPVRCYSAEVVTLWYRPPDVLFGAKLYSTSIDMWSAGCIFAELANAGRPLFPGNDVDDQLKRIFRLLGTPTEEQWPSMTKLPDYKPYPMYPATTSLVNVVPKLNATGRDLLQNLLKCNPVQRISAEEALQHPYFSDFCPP

[20] = target: Myotonin-protein kinase (Homo sapiens) (UniProt Q09013); details: Compound concentration 1000.0 nM
[21] = target: Focal adhesion kinase 1 (Homo sapiens) (UniProt Q05397); details: Compound concentration 1000.0 nM
[22] = target: Mast/stem cell growth factor receptor Kit (Homo sapiens) (UniProt P10721); details: Compound concentration 1000.0 nM
[23] = target: Serine/threonine-protein kinase ULK1 (Homo sapiens) (UniProt O75385); details: Compound concentration 1000.0 nM
[24] = tested on: Phosphatidylinositol 4,5-bisphosphate 3-kinase catalytic subunit alpha isoform (Homo sapiens), P42336 [C420R]; details: Compound concentration 1000.0 nM
[25] = tested on: Epidermal growth factor receptor (Homo sapiens), P00533 [UNDEFINED MUTATION]; details: Compound concentration 1000.0 nM
[26] = target: Serine/threonine-protein kinase 17A (Homo sapiens) (UniProt Q9UEE5); details: Compound concentration 1000.0 nM
[27] = target: Tyrosine-protein kinase Lck (Homo sapiens) (UniProt P06239); details: Compound concentration 1000.0 nM
[28] = tested on: Mast/stem cell growth factor receptor Kit (Homo sapiens), P10721 [V559D,V654A]; details: Compound concentration 1000.0 nM
[29] = target: Protein-tyrosine kinase 2-beta (Homo sapiens) (UniProt Q14289); assay: Pyk2 (h) Millipore kinase activity assay; details: Compound concentration 1.0 uM
[30] = target: Epidermal growth factor receptor (Homo sapiens) (UniProt P00533); assay: Inhibition of Epidermal Growth Factor (EGF) at 10 µM in the Eurofins-Panlabs radioligand binding assay (Eurofins_assay_225510); details: Compound concentration 10.0 uM
[31] = target: Substance-P receptor (Homo sapiens) (UniProt P25103); assay: Inhibition of Tachykinin NK1 at 10 µM in the Eurofins-Panlabs radioligand binding assay (Eurofins_assay_255520); design: ligand concentration 0.8 nM; details: Compound concentration 10.0 uM
[32] = target: Rho-associated protein kinase 2 (Homo sapiens) (UniProt O75116); assay: ROCK-II (h) Millipore kinase activity assay; details: Compound concentration 1.0 uM
[33] = target: Ephrin type-A receptor 1 (Homo sapiens) (UniProt P21709); assay: EphA1 (h) Millipore kinase activity assay; details: Compound concentration 1.0 uM
[34] = target: Serine/threonine-protein kinase PAK 5 (Homo sapiens) (UniProt Q9P286); assay: PAK5 (h) Millipore kinase activity assay; details: Compound concentration 1.0 uM
[35] = target: Tyrosine-protein kinase Lyn (Homo sapiens) (UniProt P07948); assay: Lyn (h) Millipore kinase activity assay; details: Compound concentration 1.0 uM
[36] = target: Serine/threonine-protein kinase MRCK alpha (Homo sapiens) (UniProt Q5VT25); assay: MRCKalpha (h) Millipore kinase activity assay; details: Compound concentration 1.0 uM
[37] = target: Ribosomal protein S6 kinase alpha-6 (Homo sapiens) (UniProt Q9UK32); assay: Rsk4 (h) Millipore kinase activity assay; details: Compound concentration 1.0 uM
[38] = target: Dual specificity tyrosine-phosphorylation-regulated kinase 2 (Homo sapiens) (UniProt Q92630); assay: DYRK2 (h) Millipore kinase activity assay; details: Compound concentration 1.0 uM
[39] = target: Cysteinyl leukotriene receptor 1 (Homo sapiens) (UniProt Q9Y271); assay: Inhibition of Leukotriene, Cysteinyl CysLT1 at 10 µM in the Eurofins-Panlabs radioligand binding assay (Eurofins_assay_250460); design: ligand concentration 0.3 nM, non-specific ligand with concentration 0.3 µM Leukotriene D4, incubation time 30 min, incubation temperature 25 °C; details: Compound concentration 10.0 uM
Chain of Cysteinyl leukotriene receptor 1 (Homo sapiens) (Q9Y271 whole entry): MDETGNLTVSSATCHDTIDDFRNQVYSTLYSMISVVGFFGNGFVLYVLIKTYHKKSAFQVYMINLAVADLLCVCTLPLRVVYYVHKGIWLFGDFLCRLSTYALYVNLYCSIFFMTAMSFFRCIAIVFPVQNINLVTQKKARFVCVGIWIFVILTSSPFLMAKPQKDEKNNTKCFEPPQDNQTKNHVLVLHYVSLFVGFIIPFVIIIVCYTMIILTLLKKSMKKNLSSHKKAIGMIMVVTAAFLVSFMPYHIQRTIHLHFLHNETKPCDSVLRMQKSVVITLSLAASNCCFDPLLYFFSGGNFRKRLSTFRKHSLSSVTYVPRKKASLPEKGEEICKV

[40] = target: D(2) dopamine receptor (Homo sapiens) (UniProt P14416); details: Compound concentration 10.0 uM
Mus musculus = organism: Mus musculus; assay: Inhibition of Interleukin IL-1 at 10 µM in the Eurofins-Panlabs radioligand binding assay (Eurofins_assay_243520); design: ligand concentration 0.1 nM; details: Compound concentration 10.0 uM
[41] = target: Serine/threonine-protein kinase SIK1 (Homo sapiens) (UniProt P57059); assay: SIK (h) Millipore kinase activity assay; details: Compound concentration 1.0 uM
Chain of Serine/threonine-protein kinase SIK1 (Homo sapiens) (P57059 whole entry): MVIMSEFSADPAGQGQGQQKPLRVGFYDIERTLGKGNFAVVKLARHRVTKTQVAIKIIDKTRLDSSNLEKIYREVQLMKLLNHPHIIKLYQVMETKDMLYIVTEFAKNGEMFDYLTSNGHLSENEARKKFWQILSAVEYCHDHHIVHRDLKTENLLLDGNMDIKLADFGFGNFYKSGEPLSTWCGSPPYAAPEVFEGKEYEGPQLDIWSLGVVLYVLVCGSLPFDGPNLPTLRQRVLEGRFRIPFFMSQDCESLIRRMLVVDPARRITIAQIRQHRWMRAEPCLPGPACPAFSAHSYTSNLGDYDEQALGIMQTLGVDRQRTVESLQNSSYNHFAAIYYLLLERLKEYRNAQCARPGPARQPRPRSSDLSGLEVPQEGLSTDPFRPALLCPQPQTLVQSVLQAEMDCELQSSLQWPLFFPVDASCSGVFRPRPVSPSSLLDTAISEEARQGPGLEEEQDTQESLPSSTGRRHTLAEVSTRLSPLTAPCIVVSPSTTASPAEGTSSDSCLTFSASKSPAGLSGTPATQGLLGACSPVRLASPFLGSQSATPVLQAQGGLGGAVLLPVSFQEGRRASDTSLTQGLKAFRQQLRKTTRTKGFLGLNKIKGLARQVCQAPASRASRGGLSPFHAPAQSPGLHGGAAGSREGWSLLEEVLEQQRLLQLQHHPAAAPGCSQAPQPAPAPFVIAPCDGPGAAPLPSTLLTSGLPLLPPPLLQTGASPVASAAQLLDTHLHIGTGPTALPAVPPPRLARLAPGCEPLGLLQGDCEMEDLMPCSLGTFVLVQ

[42] = target: Hepatocyte growth factor receptor (Homo sapiens, UniProt P08581); assay: Met (h) Millipore kinase activity assay; details: Compound concentration 1.0 uM
[43] = target: Tyrosine-protein kinase HCK (Homo sapiens) (UniProt P08631); assay: Hck (h) Millipore kinase activity assay; details: Compound concentration 1.0 uM

Chain of Tyrosine-protein kinase ABL1 (Homo sapiens), P00519 [F317I] (P00519 whole entry F317I): as the sequence (P00519 whole entry E255K) above, with K255E, F317I counted along it

CC1=C(C#N)[C@@H](c2ccc3[nH]nc(C)c3c2)C(C#N)=C(c2ccc(Cl)cc2)N1 [BAY-827]
inactive: residual activity [1] 100% | residual activity [2] 100% | residual activity [3] 100% | residual activity [4] 100% | residual activity [5] 91.1% | residual activity [6] 100% | residual activity [7] 100% | residual activity [8] 100% | residual activity [9] 100% | residual activity [10] 88.1% | residual activity [11] 83.5% | residual activity [12] 76.4% | residual activity [13] 100% | residual activity [14] 62.4% | residual activity [15] 100% | residual activity [16] 100% | residual activity [17] 100% | residual activity [18] 100% | residual activity [19] 100% | residual activity [20] 100% | residual activity [21] 100% | residual activity [22] 71.2% | residual activity [23] 100% | residual activity [24] 100% | residual activity [25] 100% | residual activity [26] 100% | residual activity [27] 100% | residual activity [28] 100%

CC1=C(C#N)C(c2ccc3[nH]nc(C)c3c2)C(C#N)=C(C)N1 [BAY-474]
inactive: inhibition [29] 17% | inhibition [30] 7% | inhibition [31] -4% | inhibition [32] -3% | inhibition [33] 0% | inhibition [34] -4% | inhibition [35] -1% | inhibition [36] -10% | inhibition [37] 52% | inhibition [38] -8% | inhibition [39] 8% | inhibition [40] 2% | inhibition (Mus musculus) 0% | inhibition [41] -7% | inhibition [42] 82% | inhibition [43] 16%
